Measurements reported in US20120077836A1, “METHODS OF ADMINISTERING (4AR,10AR)-1-N-PROPYL-1,2,3,4,4A,5,10,10A-OCTAHYDROBENZO [G] QUINOLINE-6,7-DIOL AND RELATED COMPOUNDS ACROSS THE ORAL MUCOSA, THE NASAL MUCOSA OR THE SKIN AND PHARMACEUTICAL COMPOSITIONS THEREOF” (priority 2009, published 2012).
Counter-ions that a name gives are not always drawn. Like-named read-outs stand apart in the source and are kept apart here.

Tests used:
Format in all cases: in vivo, rat
6-OHDA rats = assay: Reversal of L-DOPA-induced dyskinesias in 6-OHDA rats (AIMS)
From the text: Animals were observed on Days 1, 3 and 5 and AIMS were scored. The day 5 scores were then used to separate the animals into three groups of 6 animals each. Group 1 continued with daily L-DOPA treatment. […] Treatment continued daily for 10 days and the amount of dyskinesia was scored on days 1, 5, 9 and 10.

reserpinesed rats = assay: Reversal of reserpine-induced hypomotility in rats; settings: for activity count: reserpine 5 mg/kg SC 23-24 h before, over 3 hours
Protocol: Rats weighing ca. 200 g were treated with reserpine (5 mg/kg subcutaneously as a solution in 20% aqueous solutol for which pH was adjusted to 4 with methanesulfonic acid). […] Group 1: treated with 20% ethanol in 0.7% aqueous sodium chloride subcutaneously.

[1] = tested on: unilaterally lesioned 6-OHDA rats
Protocol: Animals were generated as described under example 7. Four groups of animals were dosed with various doses of compound 10 (group 1, 1 microg/kg; group 2, 10 microg/kg; group 3, 25 microg/kg; group 4, 50 microg/kg). In all cases, compound 10 was administered in one of the nostrils in a volume of 20 microL of a solution of the appropriate concentration in 20% ethanol in 0.7% aqueous sodium chloride containing 0.02% ascorbic acid. The drug solution was applied to one of the nostrils and the nose was gently massaged to ensure distribution of the administered solution over the nasal mucosa. The degree of rotation behaviour of the animals was recorded over the next 3 hours.

[2] = tested on: rats with unilateral 6-OHDA lesions; assay: Rotation response in 6-OHDA rats after transdermal delivery
Protocol: We have used rats with unilateral 6-OHDA lesions to assess compound 10 for its ability to induce rotation after transdermal administration [for details on the model, see the description under example 7]. Three groups of six animals were treated with different doses of compound 10 administered transdermally. Compound 10 (24 mg) was suspended in a mixture of 0.02% ascorbic acid and 20% ethanol in saline (9 mL); the resulting suspension was diluted with dimethyl sulfoxide (0.45 mL). The appropriate amount of this formulation was applied to the ears of the animals. The ears were rubbed gently before the rotation response of the animals was assessed over 3 h. […]

Structure (SMILES): CCCN1CCC[C@@H]2Cc3c(ccc(O)c3O)C[C@H]21 [compound 10, (4aR,10aR)-1-n-Propyl-1,2,3,4,4a,5,10,10a-octahydro-benzo[g]quinoline-6,7-diol hydrobromide]
- dyskinesias versus other groups (two-way repeated measures ANOVA) (6-OHDA rats; L-DOPA-primed 6-OHDA rats, 10 days treatment): significantly fewer dyskinesias than both the pramipexole group and the L-DOPA/Benserazide group
- mean AIM score (days 1, 5, 9, 10) (6-OHDA rats; after 7 days L-DOPA/Benserazide priming, once daily days 1-10: L-DOPA/Benserazide 6/15 mg/kg SC, compound 10 0.0013 mg/kg SC, pramipexole […] SC): 44
- reversal of reserpine-induced hypomotility (reserpinesed rats; administered buccally): reversed the hypomotility
- reversal of reserpine-induced hypomotility (reserpinesed rats; administered subcutaneously): reversed the reserpine-induced hypomotility
- activity count (reserpinesed rats; 0.05 mg/kg buccally): 378
- activity count (reserpinesed rats; 0.10 mg/kg buccally): 533
- activity count (reserpinesed rats; apomorphine 1 mg/kg SC, compound 10 0.01 mg/kg SC, controls: vehicle 486, reserpine/vehicle 17): 308
- mean number of rotations (0-3 h) ([1]; group 1, intranasal 1 microg/kg): 401
- mean number of rotations (0-3 h) ([1]; group 2, intranasal 10 microg/kg): 691
- mean number of rotations (0-3 h) ([1]; group 3, intranasal 25 microg/kg): 1286
- mean number of rotations (0-3 h) ([1]; group 4, intranasal 50 microg/kg): 2122
- mean number of rotations over 3 h ([2]; 0.127 mg/kg transdermally (ears)): 482
- mean number of rotations over 3 h ([2]; 0.254 mg/kg transdermally (ears)): 837
- mean number of rotations over 3 h ([2]; 0.381 mg/kg transdermally (ears)): 1448
- induction of circling behavior ([2]; transdermal delivery, three dose groups): induced circling behavior in all three groups
